# Data taken from patent publication US11642332B2, “(2R,4R)-5-(5′-chloro-2′-fluorobiphenyl-4-yl)-2-hydroxy-4-[(5-methyloxazole-2-carbonyl)amino]pentanoic acid” (THERAVANCE BIOPHARMA R&D IP, LLC, priority 2015, dated 2023).
# Experiments:
# [1] = target: T1, human neprilysin (EC 3.4.24.11; NEP) (Homo sapiens, UniProt P08473); assay: In vitro assay for the quantitation of inhibitor potency at human NEP; format: biochemical; conditions: recombinant human NEP, fluorogenic peptide substrate 10 μM, 37° C.; read-out: pKi at human NEP (converted)
# T1 construct: purchased R&D Systems 1182-ZN
# T1 sequence (P08473 52-750 limits assumed): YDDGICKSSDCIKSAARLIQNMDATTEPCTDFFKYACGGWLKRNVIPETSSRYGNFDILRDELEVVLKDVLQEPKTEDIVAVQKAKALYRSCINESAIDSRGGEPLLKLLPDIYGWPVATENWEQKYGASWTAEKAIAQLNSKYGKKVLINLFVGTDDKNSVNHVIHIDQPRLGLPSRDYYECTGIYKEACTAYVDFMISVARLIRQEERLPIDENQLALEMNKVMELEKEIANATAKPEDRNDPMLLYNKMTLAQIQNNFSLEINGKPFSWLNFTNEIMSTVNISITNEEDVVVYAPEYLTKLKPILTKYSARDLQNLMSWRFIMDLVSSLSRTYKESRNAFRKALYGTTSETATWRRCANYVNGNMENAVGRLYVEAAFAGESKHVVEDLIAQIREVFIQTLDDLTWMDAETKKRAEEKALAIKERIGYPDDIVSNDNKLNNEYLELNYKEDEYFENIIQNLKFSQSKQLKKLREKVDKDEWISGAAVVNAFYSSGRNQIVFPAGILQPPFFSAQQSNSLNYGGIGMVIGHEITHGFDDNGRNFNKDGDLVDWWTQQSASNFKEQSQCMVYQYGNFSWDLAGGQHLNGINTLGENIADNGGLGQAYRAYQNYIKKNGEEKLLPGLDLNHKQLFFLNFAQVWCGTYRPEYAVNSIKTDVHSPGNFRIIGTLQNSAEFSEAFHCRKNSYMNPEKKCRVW
# Method: The inhibitory activity at human neprilysin (EC 3.4.24.11; NEP) was determined as follows.
# Recombinant human NEP was obtained commercially (R&D Systems, Minneapolis, Minn., catalog number 1182-ZN). The fluorogenic peptide substrate Mca-D-Arg-Arg-Leu-Dap-(Dnp)-OH (Medeiros et al. (1997) Braz. J. Med. Biol. Res. 30:1157-62; Anaspec, San Jose, Calif.) was used.
# The assay was performed in 384-well white opaque plates at 37° C. using the fluorogenic peptide substrate at a concentration of 10 μM in Assay Buffer (50 mM HEPES, pH 7.5, 100 mM NaCl, 0.01% polyethylene glycol sorbitan monolaurate (Tween-20), 10 μM ZnSO4).
# Test compounds were assayed over the range of concentrations from 10 μM to 20 pM. Test compounds were added to the enzyme and incubated for 30 minute at 37° C. prior to initiating the reaction by the addition of substrate. Reactions were terminated after 20 minutes of incubation at 37° C. by the addition of glacial acetic acid to a final concentration of 3.6% (v/v).
# Plates were read on a fluorometer with excitation and emission wavelengths set to […]. Inhibition constants were obtained by nonlinear regression of the data using the equation (GraphPad Software, Inc., San Diego, Calif.): v=v0/[1+(I/K′)] where v is the reaction rate, v0 is the uninhibited reaction rate, I is the inhibitor concentration and K′ is the apparent inhibition constant.
# The compounds were tested in this assay and found to have pKi values at human NEP as follows.
# [2] = target: T2, NEP (Rattus norvegicus, UniProt P07861); assay: PK-PD assay for NEP activity in conscious normotensive Sprague-Dawley rats (plasma cGMP after ANP bolus); format: in vivo, male Sprague-Dawley rats; conditions: 3 mg/kg oral
# T2 construct: Pre-cannulated male Sprague-Dawley rats (3 per compound evaluated) between 8 and 10 weeks of age were obtained from Harlan Laboratories; from tissue; host or cells: whole animal: conscious male Sprague-Dawley rats (Harlan Laboratories)
# T2 sequence (P07861 1-750): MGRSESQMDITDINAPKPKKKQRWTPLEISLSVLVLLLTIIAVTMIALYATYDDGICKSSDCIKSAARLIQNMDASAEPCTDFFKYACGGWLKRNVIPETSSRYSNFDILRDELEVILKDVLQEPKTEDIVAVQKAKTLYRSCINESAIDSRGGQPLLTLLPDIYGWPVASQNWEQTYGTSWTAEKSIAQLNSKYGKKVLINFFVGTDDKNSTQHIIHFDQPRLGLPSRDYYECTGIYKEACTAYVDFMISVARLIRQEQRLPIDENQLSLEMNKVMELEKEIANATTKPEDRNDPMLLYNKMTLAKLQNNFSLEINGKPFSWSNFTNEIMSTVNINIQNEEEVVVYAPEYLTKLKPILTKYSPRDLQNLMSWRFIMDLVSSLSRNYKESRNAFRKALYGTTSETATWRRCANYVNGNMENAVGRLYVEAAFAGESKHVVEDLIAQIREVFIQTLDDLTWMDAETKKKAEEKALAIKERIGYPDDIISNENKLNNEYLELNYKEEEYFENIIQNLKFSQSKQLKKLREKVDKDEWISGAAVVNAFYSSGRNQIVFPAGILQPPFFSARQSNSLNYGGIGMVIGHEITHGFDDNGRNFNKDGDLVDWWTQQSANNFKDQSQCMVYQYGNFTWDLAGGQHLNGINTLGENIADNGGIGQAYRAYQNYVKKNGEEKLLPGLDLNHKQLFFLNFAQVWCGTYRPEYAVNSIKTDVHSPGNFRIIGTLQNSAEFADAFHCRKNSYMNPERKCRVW
# Method: Appropriate masses of each test compound were added into a volume of vehicle (e.g. 5% sodium bicarbonate, 5% dextrose in H2O) such that the final concentration of each compound was appropriate to be dosed at 2 mL/kg. Note that a homogenous suspension was deemed to be acceptable for oral dosing.
# Pre-cannulated male Sprague-Dawley rats (3 per compound evaluated) between 8 and 10 weeks of age were obtained from Harlan Laboratories (Indianapolis, Ind.). Rats received a single oral gavage of the dosing solution. The final dose was typically in the range of 3-30 mg/kg. Serial blood samples were harvested via the cannula implanted in the jugular vein at 3 minutes, 15 minutes, 35 minutes, 45 minutes, 1 hour, 2 hours, 4 hours, 6 hours, and 24 hours post-dose. Samples were collected into microtainer tubes containing EDTA as the anticoagulant and were processed to plasma by refrigerated centrifugation. Fifteen minutes prior to the 45 minute, 2 hour, 4 hour, 6 hour, and 24 hour samples, an IV bolus (30 μg/kg) of Atrial Natriuretic Peptide (ANP) was administered. […] Since binding of ANP to its receptor leads to activation of guanylyl cyclase and subsequent production of cyclic guanosine monophosphate (cGMP), the observation of elevated levels of cGMP (>20 nM) in plasma 15 minutes after the IV administration of the ANP bolus was interpreted as evidence of ongoing neprilysin inhibition. Elevated levels plasma cGMP levels 24 hours after dosing is an indicator of the duration pharmacologic effect, analogous to plasma clearance values as indicators of pharmacokinetic persistence.
# Plasma samples were extracted with 3 volumes of MeCN containing a suitable internal standard. Extracts were reconstituted into 3 volumes of water containing 1% formic acid. Plasma cGMP and test compound concentrations were quantified in plasma samples by HPLC-coupled mass spectrometric detection.
smiles,measurement,setting,value
"Cc1cnc(C(=O)N[C@H](Cc2ccc(-c3cc(Cl)ccc3F)cc2)C[C@@H](O)C(=O)O)o1 [Compound 1, (2R,4R)-5-(5′-Chloro-2′-fluorobiphenyl-4-yl)-2-hydroxy-4-[(5-methyloxazole-2-carbonyl)amino]pentanoic Acid]",Ki,[1],0.2 nM
same,cGMP Concentration 24 hours After Dosing Mean,"[2]; rat plasma, 15 min after IV ANP bolus (30 μg/kg), average of three determinations",112 nM
same,"potentiation of cGMP 24 hr after dosing compared to Compounds C2, C3 and C4",[2]; rat,more than 2 fold
